In patent publication US20230085307A1, “PYRIDAZINONE COMPOUND AND HERBICIDE” (NISSAN CHEMICAL CORPORATION, priority 2019, published 2023):

Key:
late watergrass = experiment: Test Example 1: herbicidal activity, application before weed generation under submerged conditions (Table 16, symbol A); type: in vivo, late watergrass (Echinochloa oryzicola)
Summary of the method: (§1)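 Emulsion formulation, water-diluted to set dose, was put onto the flooded surface (4 cm depth, alluvial soil) the same day weeds were sown and 2.5-leaf rice transplanted. After 3 weeks at 25-30 °C under glass, each species was rated 0 (≤5% kill) to 5 (≥90% kill).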

Japanese bulrush = experiment: Test Example 1: herbicidal activity, application before weed generation under submerged conditions (Table 16, symbol B); type: in vivo, Japanese bulrush (Schoenoplectus juncoides)
Summary of the method: as §1

oval-leafed pondweed = experiment: Test Example 1: herbicidal activity, application before weed generation under submerged conditions (Table 16, symbol C); type: in vivo, oval-leafed pondweed (Monochoria vaginalis)
Summary of the method: as §1

barnyard grass [1] = experiment: Test Example 3: herbicidal effect by foliage application, Wagner pot (Table 18, symbol H); type: in vivo, barnyard grass (Echinochloa crus-galli)
Summary of the method: (§2)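 Plants were sown in alluvial soil held under 0.1–0.5 cm standing water and grown 14 days in a greenhouse at 25–30 °C. An emulsifiable formulation, water-diluted to the set dose, was then sprayed onto the foliage, and effects were scored three weeks later using previously defined criteria.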

Chinese sprangletop = experiment: Test Example 3: herbicidal effect by foliage application, Wagner pot (Table 18, symbol D); type: in vivo, chinese sprangletop (Leptochloa chinensis)
Summary of the method: as §2

rice flat sedge = experiment: Test Example 3: herbicidal effect by foliage application, Wagner pot (Table 18, symbol E); type: in vivo, rice flat sedge (Cyperus iria)
Summary of the method: as §2

southern crabgrass [2] = experiment: Test Example 5: herbicidal effect by foliage application, plastic box (Table 20, symbol F); type: in vivo, southern crabgrass (Digitaria ciliaris); conditions: foliage application, three weeks after application
Summary of the method: (§3)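 Sow seeds spot-wise in sterilized diluvial soil; cover with ~1.5 cm soil. Grow 14 days in greenhouse, 25° C. to 30° C. Spray foliage with emulsion diluted to predetermined amount. Rate effect after 3 weeks.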

green foxtail [3] = experiment: Test Example 5: herbicidal effect by foliage application, plastic box (Table 20, symbol G); type: in vivo, green foxtail (Setaria viridis); conditions: foliage application, three weeks after application
Summary of the method: as §3

barnyard grass [4] = experiment: Test Example 5: herbicidal effect by foliage application, plastic box (Table 20, symbol H); type: in vivo, barnyard grass (Echinochloa crus-galli); conditions: foliage application, three weeks after application
Summary of the method: as §3

wild oat = experiment: Test Example 5: herbicidal effect by foliage application, plastic box (Table 20, symbol I); type: in vivo, wild oat (Avena fatua); conditions: foliage application, AAH 320 g/ha, three weeks after application
Summary of the method: as §3

blackgrass = experiment: Test Example 5: herbicidal effect by foliage application, plastic box (Table 20, symbol J); type: in vivo, blackgrass (Alopecurus myosuroides); conditions: foliage application, AAH 320 g/ha, three weeks after application
Summary of the method: as §3

Italian ryegrass = experiment: Test Example 5: herbicidal effect by foliage application, plastic box (Table 20, symbol K); type: in vivo, Italian ryegrass (Lolium multiflorum); conditions: foliage application, AAH 320 g/ha, three weeks after application
Summary of the method: as §3

windgrass = experiment: Test Example 5: herbicidal effect by foliage application, plastic box (Table 20, symbol L); type: in vivo, windgrass (Apera spica-venti); conditions: foliage application, AAH 320 g/ha, three weeks after application
Summary of the method: as §3

velvetleaf [5] = experiment: Test Example 5: herbicidal effect by foliage application, plastic box (Table 20, symbol M); type: in vivo, velvetleaf (Abutilon theophrasti); conditions: foliage application, three weeks after application
Summary of the method: as §3

redroot pigweed [6] = experiment: Test Example 5: herbicidal effect by foliage application, plastic box (Table 20, symbol N); type: in vivo, redroot pigweed (Amaranthus retroflexus); conditions: foliage application, three weeks after application
Summary of the method: as §3

lambsquarters [7] = experiment: Test Example 5: herbicidal effect by foliage application, plastic box (Table 20, symbol O); type: in vivo, lambsquarters (Chenopodium album); conditions: foliage application, three weeks after application
Summary of the method: as §3

chickweed = experiment: Test Example 5: herbicidal effect by foliage application, plastic box (Table 20, symbol P); type: in vivo, common chickweed (Stellaria media); conditions: foliage application, AAH 320 g/ha, three weeks after application
Summary of the method: as §3

persian speedwell = experiment: Test Example 5: herbicidal effect by foliage application, plastic box (Table 20, symbol R); type: in vivo, Persian speedwell (Veronica persica); conditions: foliage application, AAH 320 g/ha, three weeks after application
Summary of the method: as §3

southern crabgrass [8] = experiment: Test Example 4: herbicidal effect by soil treatment (Table 19, symbol F); type: in vivo, southern crabgrass (Digitaria ciliaris)
Summary of the method: (§4)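 Applied as a water-diluted emulsion, the compound was sprayed onto soil covering newly sown seeds. Evaluation came three weeks after application, in a greenhouse held at 25° C. to 30° C.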

green foxtail [9] = experiment: Test Example 4: herbicidal effect by soil treatment (Table 19, symbol G); type: in vivo, green foxtail (Setaria viridis)
Summary of the method: as §4

barnyard grass [10] = experiment: Test Example 4: herbicidal effect by soil treatment (Table 19, symbol H); type: in vivo, barnyard grass (Echinochloa crus-galli)
Summary of the method: as §4

velvetleaf [11] = experiment: Test Example 4: herbicidal effect by soil treatment (Table 19, symbol M); type: in vivo, velvetleaf (Abutilon theophrasti)
Summary of the method: as §4

redroot pigweed [12] = experiment: Test Example 4: herbicidal effect by soil treatment (Table 19, symbol N); type: in vivo, redroot pigweed (Amaranthus retroflexus)
Summary of the method: as §4

lambsquarters [13] = experiment: Test Example 4: herbicidal effect by soil treatment (Table 19, symbol O); type: in vivo, lambsquarters (Chenopodium album)
Summary of the method: as §4

[14] = amount of applied herbicide 403 g/ha
[15] = amount of applied herbicide 320 g/ha

SMILES	Herbicidal effect, A: late watergrass (late watergrass; [15])	Herbicidal effect, B: Japanese bulrush (Japanese bulrush; [15])	Herbicidal effect, C: oval-leafed pondweed (oval-leafed pondweed; [15])	herbicidal effect on H: barnyard grass (barnyard grass [1]; [15])	herbicidal effect on D: Chinese sprangletop (Chinese sprangletop; [15])	herbicidal effect on E: rice flat sedge (rice flat sedge; [15])	herbicidal effect, F: southern crabgrass (southern crabgrass [8]; [15])	herbicidal effect, G: green foxtail (green foxtail [9]; [15])	herbicidal effect, H: barnyard grass (barnyard grass [10]; [15])	herbicidal effect, M: velvetleaf (velvetleaf [11]; [15])	herbicidal effect, N: redroot pigweed (redroot pigweed [12]; [15])	herbicidal effect, O: lambsquarters (lambsquarters [13]; [15])	F: southern crabgrass, herbicidal effect grade (southern crabgrass [2]; 320 g/ha)	G: green foxtail, herbicidal effect grade (green foxtail [3]; 320 g/ha)	H: barnyard grass, herbicidal effect grade (barnyard grass [4]; 320 g/ha)	M: velvetleaf, herbicidal effect grade (velvetleaf [5]; 320 g/ha)	N: redroot pigweed, herbicidal effect grade (redroot pigweed [6]; 320 g/ha)	O: lambsquarters, herbicidal effect grade (lambsquarters [7]; 320 g/ha)	also measured
COc1cn(C)nc1-c1sc2ccccc2c1-c1c(O)c(C)nn(C)c1=O [1-105]	–	–	–	–	–	–	–	–	–	–	–	–	–	–	–	–	–	–	Herbicidal effect on A: late watergrass (grade 0-5) (late watergrass; 320 g/ha applied herbicide): 3 (Herbicidal rate of 40% or more and less than 70%); Herbicidal effect on B: Japanese bulrush (grade 0-5) (Japanese bulrush; 320 g/ha applied herbicide): 3 (Herbicidal rate of 40% or more and less than 70%); Herbicidal effect on C: oval-leafed pondweed (grade 0-5) (oval-leafed pondweed; 320 g/ha applied herbicide): 2 (Herbicidal rate of 20% or more and less than 40%); herbicidal effect on H (barnyard grass), rating 0-5 (barnyard grass [1]; 320 g/ha): 4 (Herbicidal rate of 70% or more and less than 90%); herbicidal effect on D (Chinese sprangletop), rating 0-5 (Chinese sprangletop; 320 g/ha): 3 (Herbicidal rate of 40% or more and less than 70%); herbicidal effect on E (rice flat sedge), rating 0-5 (rice flat sedge; 320 g/ha): 4 (Herbicidal rate of 70% or more and less than 90%); F: southern crabgrass, herbicidal effect (southern crabgrass [2]; AAH 320 g/ha): 3 (Herbicidal rate of 40% or more and less than 70%); G: green foxtail, herbicidal effect (green foxtail [3]; AAH 320 g/ha): 3 (Herbicidal rate of 40% or more and less than 70%); H: barnyard grass, herbicidal effect (barnyard grass [4]; AAH 320 g/ha): 1 (Herbicidal rate of 5% or more and less than 20%); I: wild oat, herbicidal effect (wild oat): 3 (Herbicidal rate of 40% or more and less than 70%); J: blackgrass, herbicidal effect (blackgrass): 0 (Herbicidal rate of 5% or less (almost no effect)); K: Italian ryegrass, herbicidal effect (Italian ryegrass): 0 (Herbicidal rate of 5% or less (almost no effect)); L: windgrass, herbicidal effect (windgrass): 4 (Herbicidal rate of 70% or more and less than 90%); M: velvetleaf, herbicidal effect (velvetleaf [5]; AAH 320 g/ha): 3 (Herbicidal rate of 40% or more and less than 70%); N: redroot pigweed, herbicidal effect (redroot pigweed [6]; AAH 320 g/ha): 5 (Herbicidal rate of 90% or more (almost completely withered)); O: lambsquarters, herbicidal effect (lambsquarters [7]; AAH 320 g/ha): 4 (Herbicidal rate of 70% or more and less than 90%); P: chickweed, herbicidal effect (chickweed): 5 (Herbicidal rate of 90% or more (almost completely withered)); R: persian speedwell, herbicidal effect (persian speedwell): 4 (Herbicidal rate of 70% or more and less than 90%)
CC[S+]([O-])c1cccc(-c2sc3ccc(F)cc3c2-c2c(O)c(C)nn(C)c2=O)c1 (stereo not drawn) [2-460]	–	–	–	–	–	–	–	–	–	–	–	–	–	–	–	–	–	–	Herbicidal effect, A: late watergrass (late watergrass; [14]): 3 (Herbicidal rate of 40% or more and less than 70%); Herbicidal effect, B: Japanese bulrush (Japanese bulrush; [14]): 0 (Herbicidal rate of 5% or less (almost no effect)); Herbicidal effect, C: oval-leafed pondweed (oval-leafed pondweed; [14]): 0 (Herbicidal rate of 5% or less (almost no effect)); herbicidal effect on H: barnyard grass (barnyard grass [1]; [14]): 4 (Herbicidal rate of 70% or more and less than 90%); herbicidal effect on D: Chinese sprangletop (Chinese sprangletop; [14]): 0 (Herbicidal rate of 5% or less (almost no effect)); herbicidal effect on E: rice flat sedge (rice flat sedge; [14]): 0 (Herbicidal rate of 5% or less (almost no effect)); herbicidal effect, F: southern crabgrass (southern crabgrass [8]; [14]): 0 (Herbicidal rate of 5% or less (almost no effect)); herbicidal effect, G: green foxtail (green foxtail [9]; [14]): 0 (Herbicidal rate of 5% or less (almost no effect)); herbicidal effect, H: barnyard grass (barnyard grass [10]; [14]): 0 (Herbicidal rate of 5% or less (almost no effect)); herbicidal effect, M: velvetleaf (velvetleaf [11]; [14]): 0 (Herbicidal rate of 5% or less (almost no effect)); herbicidal effect, N: redroot pigweed (redroot pigweed [12]; [14]): 3 (Herbicidal rate of 40% or more and less than 70%); herbicidal effect, O: lambsquarters (lambsquarters [13]; [14]): 3 (Herbicidal rate of 40% or more and less than 70%); F: southern crabgrass, herbicidal effect grade (southern crabgrass [2]; 403 g/ha): 0 (Herbicidal rate of 5% or less (almost no effect)); G: green foxtail, herbicidal effect grade (green foxtail [3]; 403 g/ha): 2 (Herbicidal rate of 20% or more and less than 40%); H: barnyard grass, herbicidal effect grade (barnyard grass [4]; 403 g/ha): 3 (Herbicidal rate of 40% or more and less than 70%); M: velvetleaf, herbicidal effect grade (velvetleaf [5]; 403 g/ha): 3 (Herbicidal rate of 40% or more and less than 70%); N: redroot pigweed, herbicidal effect grade (redroot pigweed [6]; 403 g/ha): 3 (Herbicidal rate of 40% or more and less than 70%); O: lambsquarters, herbicidal effect grade (lambsquarters [7]; 403 g/ha): 3 (Herbicidal rate of 40% or more and less than 70%)
Cc1nn(C)c(=O)c(-c2c(-c3ccoc3)sc3ccc(F)cc23)c1O [2-461]	3 (Herbicidal rate of 40% or more and less than 70%)	0 (Herbicidal rate of 5% or less (almost no effect))	0 (Herbicidal rate of 5% or less (almost no effect))	4 (Herbicidal rate of 70% or more and less than 90%)	0 (Herbicidal rate of 5% or less (almost no effect))	4 (Herbicidal rate of 70% or more and less than 90%)	0 (Herbicidal rate of 5% or less (almost no effect))	0 (Herbicidal rate of 5% or less (almost no effect))	0 (Herbicidal rate of 5% or less (almost no effect))	0 (Herbicidal rate of 5% or less (almost no effect))	2 (Herbicidal rate of 20% or more and less than 40%)	1 (Herbicidal rate of 5% or more and less than 20%)	2 (Herbicidal rate of 20% or more and less than 40%)	3 (Herbicidal rate of 40% or more and less than 70%)	3 (Herbicidal rate of 40% or more and less than 70%)	4 (Herbicidal rate of 70% or more and less than 90%)	4 (Herbicidal rate of 70% or more and less than 90%)	3 (Herbicidal rate of 40% or more and less than 70%)	–
C#CCSc1ccc(-c2sc3ccc(F)cc3c2-c2c(O)c(C)nn(C)c2=O)cc1 [2-465]	4 (Herbicidal rate of 70% or more and less than 90%)	2 (Herbicidal rate of 20% or more and less than 40%)	3 (Herbicidal rate of 40% or more and less than 70%)	5 (Herbicidal rate of 90% or more (almost completely withered))	3 (Herbicidal rate of 40% or more and less than 70%)	5 (Herbicidal rate of 90% or more (almost completely withered))	0 (Herbicidal rate of 5% or less (almost no effect))	0 (Herbicidal rate of 5% or less (almost no effect))	0 (Herbicidal rate of 5% or less (almost no effect))	0 (Herbicidal rate of 5% or less (almost no effect))	5 (Herbicidal rate of 90% or more (almost completely withered))	4 (Herbicidal rate of 70% or more and less than 90%)	2 (Herbicidal rate of 20% or more and less than 40%)	5 (Herbicidal rate of 90% or more (almost completely withered))	5 (Herbicidal rate of 90% or more (almost completely withered))	4 (Herbicidal rate of 70% or more and less than 90%)	5 (Herbicidal rate of 90% or more (almost completely withered))	5 (Herbicidal rate of 90% or more (almost completely withered))	–
